± gives the uncertainty stated by the source.
Assay: xn = mol fraction of the nth substance listed

## CC(=O)CC(C)C + CC(C)CCO
298.15 K, 101 kPa, x1 = 0.1006
  viscosity: 2.58 ± 0.03 mPa·s
298.15 K, 101 kPa, x1 = 0.2027
  viscosity: 1.89 ± 0.02 mPa·s
298.15 K, 101 kPa, x1 = 0.3201
  viscosity: 1.4 ± 0.02 mPa·s
298.15 K, 101 kPa, x1 = 0.3948
  viscosity: 1.2 ± 0.02 mPa·s
298.15 K, 101 kPa, x1 = 0.5073
  viscosity: 0.965 ± 0.012 mPa·s
298.15 K, 101 kPa, x1 = 0.6072
  viscosity: 0.839 ± 0.011 mPa·s
298.15 K, 101 kPa, x1 = 0.7013
  viscosity: 0.728 ± 0.009 mPa·s
298.15 K, 101 kPa, x1 = 0.8032
  viscosity: 0.648 ± 0.008 mPa·s
298.15 K, 101 kPa, x1 = 0.8927
  viscosity: 0.595 ± 0.008 mPa·s
298.15 K, 101.3 kPa, x1 = 0.1006
  viscosity: 2.58 ± 0.071 mPa·s
298.15 K, 101.3 kPa, x1 = 0.2027
  viscosity: 1.89 ± 0.052 mPa·s
298.15 K, 101.3 kPa, x1 = 0.3201
  viscosity: 1.4 ± 0.038 mPa·s
298.15 K, 101.3 kPa, x1 = 0.3948
  viscosity: 1.2 ± 0.033 mPa·s
298.15 K, 101.3 kPa, x1 = 0.5073
  viscosity: 0.965 ± 0.027 mPa·s
298.15 K, 101.3 kPa, x1 = 0.6072
  viscosity: 0.839 ± 0.023 mPa·s
298.15 K, 101.3 kPa, x1 = 0.7013
  viscosity: 0.728 ± 0.02 mPa·s
298.15 K, 101.3 kPa, x1 = 0.8032
  viscosity: 0.648 ± 0.018 mPa·s
298.15 K, 101.3 kPa, x1 = 0.8927
  viscosity: 0.595 ± 0.016 mPa·s
303.15 K, 101.3 kPa, x1 = 0.1006
  viscosity: 2.26 ± 0.062 mPa·s
303.15 K, 101.3 kPa, x1 = 0.2027
  viscosity: 1.69 ± 0.046 mPa·s
303.15 K, 101.3 kPa, x1 = 0.3201
  viscosity: 1.28 ± 0.035 mPa·s
303.15 K, 101.3 kPa, x1 = 0.3948
  viscosity: 1.1 ± 0.03 mPa·s
303.15 K, 101.3 kPa, x1 = 0.5073
  viscosity: 0.903 ± 0.025 mPa·s
303.15 K, 101.3 kPa, x1 = 0.6072
  viscosity: 0.781 ± 0.022 mPa·s
303.15 K, 101.3 kPa, x1 = 0.7013
  viscosity: 0.682 ± 0.019 mPa·s
303.15 K, 101.3 kPa, x1 = 0.8032
  viscosity: 0.617 ± 0.017 mPa·s
303.15 K, 101.3 kPa, x1 = 0.8927
  viscosity: 0.566 ± 0.016 mPa·s
308.15 K, 101.3 kPa, x1 = 0.1006
  viscosity: 1.99 ± 0.055 mPa·s
308.15 K, 101.3 kPa, x1 = 0.2027
  viscosity: 1.51 ± 0.041 mPa·s
308.15 K, 101.3 kPa, x1 = 0.3201
  viscosity: 1.17 ± 0.032 mPa·s
308.15 K, 101.3 kPa, x1 = 0.3948
  viscosity: 1.01 ± 0.028 mPa·s
308.15 K, 101.3 kPa, x1 = 0.5073
  viscosity: 0.837 ± 0.023 mPa·s
308.15 K, 101.3 kPa, x1 = 0.6072
  viscosity: 0.728 ± 0.02 mPa·s
308.15 K, 101.3 kPa, x1 = 0.7013
  viscosity: 0.64 ± 0.018 mPa·s
308.15 K, 101.3 kPa, x1 = 0.8032
  viscosity: 0.579 ± 0.016 mPa·s
308.15 K, 101.3 kPa, x1 = 0.8927
  viscosity: 0.534 ± 0.015 mPa·s
313.15 K, 101.3 kPa, x1 = 0.1006
  viscosity: 1.75 ± 0.048 mPa·s
313.15 K, 101.3 kPa, x1 = 0.2027
  viscosity: 1.36 ± 0.037 mPa·s
313.15 K, 101.3 kPa, x1 = 0.3201
  viscosity: 1.05 ± 0.029 mPa·s
313.15 K, 101.3 kPa, x1 = 0.3948
  viscosity: 0.926 ± 0.025 mPa·s
313.15 K, 101.3 kPa, x1 = 0.5073
  viscosity: 0.766 ± 0.021 mPa·s
313.15 K, 101.3 kPa, x1 = 0.6072
  viscosity: 0.681 ± 0.019 mPa·s
313.15 K, 101.3 kPa, x1 = 0.7013
  viscosity: 0.602 ± 0.017 mPa·s
313.15 K, 101.3 kPa, x1 = 0.8032
  viscosity: 0.545 ± 0.015 mPa·s
313.15 K, 101.3 kPa, x1 = 0.8927
  viscosity: 0.506 ± 0.014 mPa·s

## CC(C)CC(C)(C)C + C1COCCO1
293.15 K, 101 kPa, x2 = 0.1085
  viscosity: 0.5237 ± 0.0039 mPa·s
293.15 K, 101 kPa, x2 = 0.2061
  viscosity: 0.5426 ± 0.0041 mPa·s
293.15 K, 101 kPa, x2 = 0.2943
  viscosity: 0.5664 ± 0.0043 mPa·s
293.15 K, 101 kPa, x2 = 0.3746
  viscosity: 0.5961 ± 0.0045 mPa·s
293.15 K, 101 kPa, x2 = 0.515
  viscosity: 0.6613 ± 0.005 mPa·s
293.15 K, 101 kPa, x2 = 0.6337
  viscosity: 0.7446 ± 0.0057 mPa·s
293.15 K, 101 kPa, x2 = 0.6865
  viscosity: 0.7922 ± 0.0061 mPa·s
293.15 K, 101 kPa, x2 = 0.8237
  viscosity: 0.9589 ± 0.0074 mPa·s
293.15 K, 101 kPa, x2 = 0.9008
  viscosity: 1.083 ± 0.0084 mPa·s
298.15 K, 101 kPa, x2 = 0.1085
  viscosity: 0.4947 ± 0.0037 mPa·s
298.15 K, 101 kPa, x2 = 0.2061
  viscosity: 0.5119 ± 0.0039 mPa·s
298.15 K, 101 kPa, x2 = 0.2943
  viscosity: 0.5334 ± 0.0041 mPa·s
298.15 K, 101 kPa, x2 = 0.3746
  viscosity: 0.561 ± 0.0043 mPa·s
298.15 K, 101 kPa, x2 = 0.515
  viscosity: 0.6252 ± 0.0048 mPa·s
298.15 K, 101 kPa, x2 = 0.6337
  viscosity: 0.6968 ± 0.0054 mPa·s
298.15 K, 101 kPa, x2 = 0.6865
  viscosity: 0.7388 ± 0.0057 mPa·s
298.15 K, 101 kPa, x2 = 0.8237
  viscosity: 0.885 ± 0.0069 mPa·s
298.15 K, 101 kPa, x2 = 0.9008
  viscosity: 0.9979 ± 0.0078 mPa·s
303.15 K, 101 kPa, x2 = 0.1085
  viscosity: 0.4683 ± 0.0036 mPa·s
303.15 K, 101 kPa, x2 = 0.2061
  viscosity: 0.4835 ± 0.0037 mPa·s
303.15 K, 101 kPa, x2 = 0.2943
  viscosity: 0.5036 ± 0.0039 mPa·s
303.15 K, 101 kPa, x2 = 0.3746
  viscosity: 0.5289 ± 0.0041 mPa·s
303.15 K, 101 kPa, x2 = 0.515
  viscosity: 0.5825 ± 0.0045 mPa·s
303.15 K, 101 kPa, x2 = 0.6337
  viscosity: 0.6529 ± 0.0051 mPa·s
303.15 K, 101 kPa, x2 = 0.6865
  viscosity: 0.6909 ± 0.0054 mPa·s
303.15 K, 101 kPa, x2 = 0.8237
  viscosity: 0.8248 ± 0.0065 mPa·s
303.15 K, 101 kPa, x2 = 0.9008
  viscosity: 0.9282 ± 0.0073 mPa·s
308.15 K, 101 kPa, x2 = 0.1085
  viscosity: 0.4438 ± 0.0034 mPa·s
308.15 K, 101 kPa, x2 = 0.2061
  viscosity: 0.4578 ± 0.0035 mPa·s
308.15 K, 101 kPa, x2 = 0.2943
  viscosity: 0.4761 ± 0.0037 mPa·s
308.15 K, 101 kPa, x2 = 0.3746
  viscosity: 0.4992 ± 0.0039 mPa·s
308.15 K, 101 kPa, x2 = 0.515
  viscosity: 0.5485 ± 0.0043 mPa·s
308.15 K, 101 kPa, x2 = 0.6337
  viscosity: 0.6141 ± 0.0048 mPa·s
308.15 K, 101 kPa, x2 = 0.6865
  viscosity: 0.6485 ± 0.0051 mPa·s
308.15 K, 101 kPa, x2 = 0.8237
  viscosity: 0.7634 ± 0.006 mPa·s
308.15 K, 101 kPa, x2 = 0.9008
  viscosity: 0.857 ± 0.0068 mPa·s
313.15 K, 101 kPa, x2 = 0.1085
  viscosity: 0.4211 ± 0.0033 mPa·s
313.15 K, 101 kPa, x2 = 0.2061
  viscosity: 0.4352 ± 0.0034 mPa·s
313.15 K, 101 kPa, x2 = 0.2943
  viscosity: 0.4507 ± 0.0035 mPa·s
313.15 K, 101 kPa, x2 = 0.3746
  viscosity: 0.4727 ± 0.0037 mPa·s
313.15 K, 101 kPa, x2 = 0.515
  viscosity: 0.5181 ± 0.0041 mPa·s
313.15 K, 101 kPa, x2 = 0.6337
  viscosity: 0.5788 ± 0.0046 mPa·s
313.15 K, 101 kPa, x2 = 0.6865
  viscosity: 0.6082 ± 0.0048 mPa·s
313.15 K, 101 kPa, x2 = 0.8237
  viscosity: 0.7242 ± 0.0057 mPa·s
313.15 K, 101 kPa, x2 = 0.9008
  viscosity: 0.7993 ± 0.0064 mPa·s

## O=C1CCCCC1 + CCCCO
298.15 K, 101 kPa, x1 = 0.0997
  viscosity: 2.13 ± 0.03 mPa·s
298.15 K, 101 kPa, x1 = 0.2002
  viscosity: 1.87 ± 0.02 mPa·s
298.15 K, 101 kPa, x1 = 0.3022
  viscosity: 1.73 ± 0.02 mPa·s
298.15 K, 101 kPa, x1 = 0.3878
  viscosity: 1.66 ± 0.02 mPa·s
298.15 K, 101 kPa, x1 = 0.5036
  viscosity: 1.63 ± 0.02 mPa·s
298.15 K, 101 kPa, x1 = 0.6016
  viscosity: 1.64 ± 0.02 mPa·s
298.15 K, 101 kPa, x1 = 0.6966
  viscosity: 1.67 ± 0.02 mPa·s
298.15 K, 101 kPa, x1 = 0.7992
  viscosity: 1.74 ± 0.02 mPa·s
298.15 K, 101 kPa, x1 = 0.8984
  viscosity: 1.82 ± 0.02 mPa·s
303.15 K, 101 kPa, x1 = 0.1001
  viscosity: 1.855 ± 0.014 mPa·s
303.15 K, 101 kPa, x1 = 0.2591
  viscosity: 1.662 ± 0.013 mPa·s
303.15 K, 101 kPa, x1 = 0.4202
  viscosity: 1.556 ± 0.012 mPa·s
303.15 K, 101 kPa, x1 = 0.5804
  viscosity: 1.517 ± 0.013 mPa·s
303.15 K, 101 kPa, x1 = 0.7265
  viscosity: 1.534 ± 0.013 mPa·s
303.15 K, 101 kPa, x1 = 0.8935
  viscosity: 1.622 ± 0.014 mPa·s

— the CheMixHub viscosity set
